In experiment [1] the target is T1, Cbl (aa49-434) (Homo sapiens, UniProt P22681).
T1 construct: Cbl (aa49-434, in-house); made in house
T1 sequence (P22681 49-434): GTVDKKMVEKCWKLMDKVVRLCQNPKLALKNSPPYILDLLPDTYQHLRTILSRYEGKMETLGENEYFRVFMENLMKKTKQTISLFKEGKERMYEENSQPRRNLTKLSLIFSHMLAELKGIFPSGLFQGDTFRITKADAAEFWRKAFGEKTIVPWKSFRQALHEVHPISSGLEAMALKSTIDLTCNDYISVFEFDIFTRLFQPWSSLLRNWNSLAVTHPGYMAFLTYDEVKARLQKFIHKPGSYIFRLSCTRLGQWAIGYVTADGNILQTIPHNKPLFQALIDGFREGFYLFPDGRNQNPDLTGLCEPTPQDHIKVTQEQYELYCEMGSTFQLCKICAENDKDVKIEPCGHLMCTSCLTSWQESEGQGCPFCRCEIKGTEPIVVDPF
Nature of the experiment: Co-expressed Cbl with BirA biochemical assay (CBL/E2-Ub binding, HTRF). The settings on record: 0.6 nM Cbl co-expressed with BirA, read-out: co-express CBL/E2-Ub-binding assay IC50. The text has this: (§1) The assay in the absence of a Cbl-b/Cbl inhibitor, where phosphorylation of Cbl-b/Cbl by the Src kinase allows UbcH5B-Ub to bind to Cbl-b/Cbl and brings the Bodipy-Fluorescein tagged ubiquitin in proximity to the streptavidin-terbium bound to the N-terminal biotinylated Avi-tagged Cbl-b/Cbl. […] The lack of a FRET signal indicates Cbl-b/Cbl is inhibited by the Cbl-b/Cbl inhibitor.
A general note: In TR-FRET formats the signal depends on donor and acceptor labels being close together.

The target in experiment [2] is T2, Cbl-b (aa36-427) (Homo sapiens, UniProt Q13191).
T2 construct: Cbl-b (aa36-427, in-house); made in house
Nature of the experiment: Co-expressed Cbl-b with BirA biochemical assay (CBLB/E2-Ub binding, HTRF). The settings on record: 0.6 nM Cbl-b co-expressed with BirA, HTRF; read-out: co-express CBLB/E2-Ub-binding assay IC50.
From the text: as §1

T2 sequence (Q13191 36-427): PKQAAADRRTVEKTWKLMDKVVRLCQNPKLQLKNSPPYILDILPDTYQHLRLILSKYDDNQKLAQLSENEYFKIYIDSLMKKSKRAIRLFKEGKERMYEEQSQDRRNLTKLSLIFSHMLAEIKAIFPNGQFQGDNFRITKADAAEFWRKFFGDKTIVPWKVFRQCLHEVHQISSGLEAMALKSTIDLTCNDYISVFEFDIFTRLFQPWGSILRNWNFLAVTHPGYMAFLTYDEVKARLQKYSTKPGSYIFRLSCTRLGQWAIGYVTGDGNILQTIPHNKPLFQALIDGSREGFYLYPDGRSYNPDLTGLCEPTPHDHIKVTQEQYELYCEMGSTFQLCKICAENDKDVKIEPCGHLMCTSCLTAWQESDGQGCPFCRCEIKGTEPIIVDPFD

Regarding `CC(C)CNCc1cc(C(=O)Nc2cccc([C@]3(c4nncn4C)C[C@@H](CC#N)C3)c2)nc2cc[nH]c12` [Compound B29, N-(3-((1s, 3s)-3-(cyanomethyl)-1-(4-methyl-4H-1,2,4-triazol-3-yl)cyclobutyl)phenyl)-7-((isobutylamino)methyl)-1H-pyrrolo[3,2-b]pyridine-5-carboxamide], the IC50 turned out to be 2.3 nM in experiment [1] and 1.2 nM in experiment [2].
The like results for `CC(C)CNCc1cc(C(=O)Nc2cncc([C@]3(c4nncn4C)C[C@@H](C)C3)c2)nc2c1CCC2(F)F` [Compound C53, 7,7-difluoro-4-{[(2-methylpropyl)amino]methyl}-N-{5-[(1r, 3s)-3-methyl-1-(4-methyl-1,2,4-triazol-3-yl)cyclobutyl]pyridin-3-yl}-5H,6H-cyclopenta[b]pyridine-2-carboxamide] were, in that order, 15.8 nM and 3.7 nM.
The like results for `Cc1cnc2c(C(=O)Nc3cccc([C@]4(c5nncn5C)C[C@@H](C)C4)c3)cc(CN3CC[C@H](F)[C@H](C)C3)cn12` [Compound A46, 6-(((3R,4S)-4-fluoro-3-methylpiperidin-1-yl)methyl)-3-methyl-N-(3-((1s,3S)-3-methyl-1-(4-methyl-4H-1,2,4-triazol-3-yl)cyclobutyl)phenyl)imidazo[1,2-a]pyridine-8-carboxamide] were, in that order, 5.9 nM and 1.6 nM.
The like results for `C[C@H]1CCCN(Cc2cc(C(=O)Nc3cccc([C@]4(c5nncn5C)C[C@@H](CC#N)C4)c3)nc3c2CCC3(C)C)C1` [Compound C9, N-(3-((1s,3R)-3-(cyanomethyl)-1-(4-methyl-4H-1,2,4-triazol-3-yl)cyclobutyl)phenyl)-7,7-dimethyl-4-(((S)-3-methylpiperidin-1-yl)methyl)-6,7-dihydro-5H-cyclopenta[b]pyridine-2-carboxamide] were, in that order, 15.7 nM and 0.9 nM.
As to `Cn1cnnc1[C@]1(c2cccc(NC(=O)c3cc(CNC4(C)CCC4)c4[nH]ccc4n3)c2)C[C@H](CC#N)C1` [Compound B27, N-(3-((1s, 3s)-3-(cyanomethyl)-1-(4-methyl-4H-1,2,4-triazol-3-yl)cyclobutyl)phenyl)-7-(((1-methylcyclobutyl)amino)methyl)-1H-pyrrolo[3,2-b]pyridine-5-carboxamide], the IC50 in experiment [1] is 8.4 nM; in experiment [2], 1.2 nM.
For `C[C@H]1CCCN(Cc2cc(C(=O)Nc3cccc([C@]4(c5nncn5C)C[C@@H](CC#N)C4)c3)nc3c(F)c[nH]c23)C1` [Compound B11, N-(3-((1s,3R)-3-(cyanomethyl)-1-(4-methyl-4H-1,2,4-triazol-3-yl)cyclobutyl)phenyl)-3-fluoro-7-(((S)-3-methylpiperidin-1-yl)methyl)-1H-pyrrolo[3,2-b]pyridine-5-carboxamide] the same measures were 14.2 nM and 1.3 nM.
In the case of `C[C@H](NCc1cc(C(=O)Nc2cccc([C@]3(c4nncn4C)C[C@@H](C)C3)c2)c2ncc(F)n2c1)C1CCC1` [Compound A65, 6-((((S)-1-cyclobutylethyl)amino)methyl)-3-fluoro-N-(3-((1s,3R)-3-methyl-1-(4-methyl-4H-1,2,4-triazol-3-yl)cyclobutyl)phenyl)imidazo[1,2-a]pyridine-8-carboxamide], the figures for the IC50 in experiment [1] and in experiment [2] were 2 nM and 0.9 nM, respectively.
The like results for `Cn1cnnc1[C@]1(c2cccc(NC(=O)c3cc(CNCC4CCCC4)c4c(n3)C(C)(C)CO4)c2)C[C@H](C)C1` [Compound C33, 7-(((cyclopentylmethyl)amino)methyl)-3,3-dimethyl-N-(3-((1s, 3s)-3-methyl-1-(4-methyl-4H-1,2,4-triazol-3-yl)cyclobutyl)phenyl)-2,3-dihydrofuro[3,2-b]pyridine-5-carboxamide] were, in that order, 46.7 nM and 11.4 nM.
The like results for `Cn1cnnc1[C@]1(c2cccc(NC(=O)c3cc(CNC4(C)CC4)cn4ncnc34)c2)C[C@H](C)C1` [Compound A87, N-(3-((1s, 3s)-3-methyl-1-(4-methyl-4H-1,2,4-triazol-3-yl)cyclobutyl)phenyl)-6-(((1-methylcyclopropyl)amino)methyl)-[1,2,4]triazolo[1,5-a]pyridine-8-carboxamide] were, in that order, 12 nM and 1.5 nM.
For `Cn1cnnc1[C@]1(c2cccc(NC(=O)c3cc(CNC4(C)CC4)cc4ccnn34)c2)C[C@H](C)C1` [Compound A91, N-(3-((1s, 3s)-3-methyl-1-(4-methyl-4H-1,2,4-triazol-3-yl)cyclobutyl)phenyl)-5-(((1-methylcyclopropyl)amino)methyl)pyrazolo[1,5-a]pyridine-7-carboxamide] the same measures were 4.1 nM and 0.6 nM.
On to `Cn1cnnc1[C@]1(c2cncc(NC(=O)c3cc(CNC4(C)CCC4)cn4c(F)cnc34)c2)C[C@H](C)C1` [Compound A76, 3-fluoro-N-(5-((1s, 3s)-3-methyl-1-(4-methyl-4H-1,2,4-triazol-3-yl)cyclobutyl)pyridin-3-yl)-6-(((1-methylcyclobutyl)amino)methyl)imidazo[1,2-a]pyridine-8-carboxamide], for which the IC50 in experiment [1] was determined as 8.3 nM; in experiment [2] it was 2.6 nM.
For `C[C@H](NCc1cc(C(=O)Nc2cccc([C@]3(c4nncn4C)C[C@@H](C)C3)c2)nc2c1OCC2(C)C)C1CC1` [Compound C35, 7-((((S)-1-cyclopropylethyl)amino)methyl)-3,3-dimethyl-N-(3-((1s,3R)-3-methyl-1-(4-methyl-4H-1,2,4-triazol-3-yl)cyclobutyl)phenyl)-2,3-dihydrofuro[3,2-b]pyridine-5-carboxamide], the IC50 in experiment [1] is 24.4 nM; in experiment [2], 3.8 nM.
For `Cn1cnnc1[C@]1(c2cccc(NC(=O)c3cc(CNCC4CCCC4)cn4c(Cl)cnc34)c2)C[C@H](C)C1` [Compound A68, 3-chloro-6-(((cyclopentylmethyl)amino)methyl)-N-(3-((1s, 3s)-3-methyl-1-(4-methyl-4H-1,2,4-triazol-3-yl)cyclobutyl)phenyl)imidazo[1,2-a]pyridine-8-carboxamide] the same measures were 2.9 nM and 0.9 nM.
The like results for `Cn1cnnc1[C@]1(c2cccc(NC(=O)c3cc(CNCC4CCC4)c4[nH]cc(F)c4n3)c2)C[C@H](C)C1` [Compound B36, 7-(((cyclobutylmethyl)amino)methyl)-3-fluoro-N-(3-((1s, 3s)-3-methyl-1-(4-methyl-4H-1,2,4-triazol-3-yl)cyclobutyl)phenyl)-1H-pyrrolo[3,2-b]pyridine-5-carboxamide] were, in that order, 2.3 nM and 0.8 nM.
Take `Cn1cnnc1[C@]1(c2cncc(NC(=O)c3cc(CNCC4CCC4)c4[nH]cc(F)c4n3)c2)C[C@H](C)C1` [Compound B46, 7-{[(cyclobutylmethyl)amino]methyl}-3-fluoro-N-{5-[(1r, 3s)-3-methyl-1-(4-methyl-1,2,4-triazol-3-yl)cyclobutyl]pyridin-3-yl}-1H-pyrrolo[3,2-b]pyridine-5-carboxamide]: the IC50 in experiment [1] turned out to be 2.7 nM; in experiment [2], 0.7 nM.
For the compound `Cn1cnnc1[C@]1(c2cccc(NC(=O)c3cc(CNC4(C)CCC4)c4c(n3)C(C)(C)CC4)c2)C[C@H](CC#N)C1` [Compound C40, N-(3-((1s, 3s)-3-(cyanomethyl)-1-(4-methyl-4H-1,2,4-triazol-3-yl)cyclobutyl)phenyl)-7,7-dimethyl-4-(((1-methylcyclobutyl)amino)methyl)-6,7-dihydro-5H-cyclopenta[b]pyridine-2-carboxamide], the figures for the IC50 in experiment [1] and in experiment [2] were 11.5 nM and 2.5 nM, respectively.
The like results for `C[C@H](NCc1cc(C(=O)Nc2cccc([C@]3(c4nncn4C)C[C@@H](C)C3)c2)nc2c1NCC2(C)C)C1CCC1` [Compound C46, 7-({[(1S)-1-cyclobutylethyl]amino}methyl)-3,3-dimethyl-N-{3-[(1r, 3s)-3-methyl-1-(4-methyl-1,2,4-triazol-3-yl)cyclobutyl]phenyl}-1H,2H-pyrrolo[3,2-b]pyridine-5-carboxamide] were, in that order, 1.8 nM and 0.7 nM.
The like results for `C[C@@H]1CN(Cc2cc(C(=O)Nc3cccc([C@]4(Cc5nncn5C)C[C@@H](C#N)C4)c3)c3nccn3c2)CC[C@@H]1F` [Compound A48, N-(3-((1r,3R)-3-cyano-1-((4-methyl-4H-1,2,4-triazol-3-yl)methyl)cyclobutyl)phenyl)-6-(((3R,4S)-4-fluoro-3-methylpiperidin-1-yl)methyl)imidazo[1,2-a]pyridine-8-carboxamide] were, in that order, 2.7 nM and 0.8 nM.
Regarding `C[C@H]1CCCN(Cc2cc(C(=O)Nc3cccc([C@]4(c5nncn5C)C[C@@H](CC#N)C4)c3)nc3c2NCC32CC2)C1` [Compound C19, N-(3-((1s,3R)-3-(cyanomethyl)-1-(4-methyl-4H-1,2,4-triazol-3yl)cyclobutyl)phenyl)-7′-(((S)-3-methylpiperidin-1-yl)methyl)-1′,2′-dihydrospiro[cyclopropane-1,3′-pyrrolo[3,2-b]pyridine]-5′-carboxamide], the results for the IC50 in experiment [1] and in experiment [2] were 6 nM and 2.7 nM, respectively.

The values are drawn from patent US20250163047A1, “HETEROCYCLIC COMPOUNDS, COMPOSITIONS THEREOF, AND METHODS OF TREATMENT THEREWITH” (BeiGene, Ltd., priority 2022, published 2025).
